Results on 34 compounds are retold here after patent US10730889B2, “Amido spirocyclic amide and sulfonamide derivatives” (Forma TM, LLC, priority 2012, dated 2020).

The structures appear in SMILES notation.

In one assay the test system is A2780 cells. As to the kind of experiment: In-vitro cell proliferation assay (SRB, 72 hours). As to conditions: A2780 cells, 72 hours, SRB; read-out: Cell Proliferation (IC50). The assay is classed as cell-based.
Experimental: Assay 2: In-Vitro Cell Proliferation Assay
Assay Method. […] The compounds were then further diluted to 10× final concentration in culture media, whereupon 20 μL of each dilution was added to the plated cells with controls (e.g. DMSO and blank) to make a final volume of 200 μL. The final DMSO concentration in each well was 0.1%. The plates were then incubated for 72 hours at 37° C. in a 5% CO2 incubator. The number of viable cells was then assessed using sulforhodamine B (SRB) assay. Cells were fixed at 4° C. for 1 hour with the addition of 50 μL 30% trichloroacetic acid (TCA) to make a final concentration of 6% TCA. The plates were washed four times with H2O and allowed to dry for at least 1 hour, whereupon 100 μL of a 4% SRB in 1% acetic acid solution was added to each well and incubated at room temperature for at least 30 min. The plates were then washed three times with 1% acetic acid, dried, and treated with 100 μL of 10 mM Tris-Base solution. The plates were then read in a microplate reader at an absorbance of 570 nm. Background was generated on a separate plate with media only.
Determination of IC50 Values. First, the signals from the background plate were averaged, then the background was subtracted from the test plates.
Consider `Cc1nn(C)c(C)c1C(=O)N1CCC2(CC1)CC2CNC(=O)c1cc2ccncc2o1` (single isomer, unassigned) [Example 300, N-[[6-(1,3,5-trimethylpyrazole-4-carbonyl)-6-azaspiro[2.5]octan-2-yl]methyl]furo[2,3-c]pyridine-2-carboxamide], for which the IC50 came out at 335 nM. Same read-out and setting: the result for `Cc1nn(C)c(C)c1C(=O)N1CCC2(CC1)CC2CNC(=O)c1cc2ccncc2o1` (single isomer, unassigned) [Example 301, N-[[6-(1,3,5-trimethylpyrazole-4-carbonyl)-6-azaspiro[2.5]octan-2-yl]methyl]furo[2,3-c]pyridine-2-carboxamide] reads 4.21 nM.

Still in this assay, the particulars now being: Homo sapiens, A2780, 72 h, A2780 cells, 72 hours, SRB; read-out: Cell Proliferation (IC50).
Take `Cc1nc(C)c(C(=O)N2CCC3(CC2)CC3CNC(=O)c2cc3ccncc3o2)o1` (single isomer, unassigned) [Example 384, N-[[6-(2,4-dimethyloxazole-5-carbonyl)-6-azaspiro[2.5]octan-2-yl]methyl]furo[2,3-c]pyridine-2-carboxamide (single isomer)]: the IC50 came to 436 nM. On the same count and under the same terms, the result for `O=C(NCC1CC12CCN(C(=O)C1CCOCC1)CC2)c1cc2cnccc2[nH]1` (stereo not shown) [Example 10, N-[[8-(tetrahydropyran-4-carbonyl)-8-azaspiro[2.5]octan-2-yl]methyl]-1H-pyrrolo[3,2-c]pyridine-2-carboxamidc] reads 791 nM.

In the case of `CC(C)(C)OC(=O)N1CCC2(CC1)CC(CNC(=O)c1ccc3nccn3c1)C2` [Example 21, tert-butyl 2-((imidazo[1,2-a]pyridine-6-carboxamido)methyl]-7-azaspiro[3.5]nonane-7-carboxylate], the IC50 is 2000 nM. Still for that read-out and setting: the result for `O=C(NCC1CC12CCN(C(=O)Cn1ccnc1)CC2)c1cc2ccncc2o1` (stereo not shown) [Example 26, N-[[6-(2-imidazol-1-ylacetyl)-6-azaspiro[2.5]octan-2-yl]methyl]furo[2,3-c]pyridine-2-carboxamide] reads 2000 nM. Same read-out and setting: the result for `O=C(NCC1CC12CCN(C(=O)CCC(F)(F)F)CC2)c1cc2ccncc2o1` (stereo not shown) [Example 27, N-[[6-(4,4,4-trifluorobutanoyl)-6-azaspiro[2.5]octan-2-yl]methyl]furo[2,3-c]pyridine-2-carboxamide] reads 842 nM; that for `CS(=O)(=O)c1cccc(CC(=O)N2CCC3(CC2)CC3CNC(=O)c2cc3ccncc3o2)c1` (stereo not shown) [Example 28, N-[[6-[2-(3-methylsulfonylphenyl)acetyl]-6-azaspiro[2.5]octan-2-yl]methyl]furo[2,3-c]pyridine-2-carboxamide], 616 nM. On the same count and under the same terms, in the case of `CC(C)(C)CC(=O)N1CCC2(CC1)CC2CNC(=O)c1cc2ccncc2o1` (stereo not shown) [Example 29, N-[[6-(3,3-dimethylbutanoyl)-6-azaspiro[2.5]octan-2-yl]methyl]furo[2,3-c]pyridine-2-carboxamide] it was 3.03 nM; in that of `CN1CCN(CC(=O)N2CCC3(CC2)CC3CNC(=O)c2cc3ccncc3o2)CC1` (stereo not shown) [Example 30, N-[[6-[2-(4-methylpiperazin-1-yl)acetyl]-6-azaspiro[2.5]octan-2-yl]methyl]furo[2,3-c]pyridine-2-carboxamide], 614 nM; in that of `N#Cc1cccc(CC(=O)N2CCC3(CC2)CC3CNC(=O)c2cc3ccncc3o2)c1` (stereo not shown) [Example 31, N-[[6-[2-(3-cyanophenyl)acetyl]-6-azaspiro[2.5]octan-2-yl]methyl]furo[2,3-c]pyridine-2-carboxamide], 12.1 nM. Turning to `O=C(NCC1CC12CCN(C(=O)CC1CC1)CC2)c1cc2ccncc2o1` (stereo not shown) [Example 32, N-[[6-(2-cyclopropylacetyl)-6-azaspiro[2.5]octan-2-yl]methyl]furo[2,3-c]pyridine-2-carboxamide], the IC50 came to 2000 nM.

As for `O=C(NCC1CC12CCN(C(=O)CN1CCCC1)CC2)c1cc2ccncc2o1` (stereo not shown) [Example 33, N-[[6-(2-pyrrolidin-1-ylacetyl)-6-azaspiro[2.5]octan-2-yl]methyl]furo[2,3-c]pyridine-2-carboxamide], the IC50 was 2000 nM. On the same count and under the same terms, the result for `Cc1cc(CC(=O)N2CCC3(CC2)CC3CNC(=O)c2cc3ccncc3o2)on1` (stereo not shown) [Example 34, N-[[6-[2-(3-methylisoxazol-5-yl)acetyl]-6-azaspiro[2.5]octan-2-yl]methyl]furo[2,3-c]pyridine-2-carboxamide] reads 379 nM; that for `O=C(NCC1CC12CCN(C(=O)CN1CCCCC1)CC2)c1cc2ccncc2o1` (stereo not shown) [Example 35, N-[[6-[2-(1-piperidyl)acetyl]-6-azaspiro[2.5]octan-2-yl]methyl]furo[2,3-c]pyridine-2-carboxamide], 2000 nM; that for `O=C(NCC1CC12CCN(C(=O)CC1CCOCC1)CC2)c1cc2ccncc2o1` (stereo not shown) [Example 36, N-[[6-(2-tetrahydropyran-4-ylacetyl)-6-azaspiro[2.5]octan-2-yl]methyl]furo[2,3-c]pyridine-2-carboxamide], 185 nM. Still for that read-out and setting: the result for `O=C(NCC1CC12CCN(C(=O)CC1CCCO1)CC2)c1cc2ccncc2o1` (stereo not shown) [Example 37, N-[[6-(2-tetrahydrofuran-2-ylacetyl)-6-azasptro[2.5]octan-2-yl]methyl]furo[2,3-c]pyridine-2-carboxamide] reads 643 nM; that for `CC(C)(C)OCC(=O)N1CCC2(CC1)CC2CNC(=O)c1cc2ccncc2o1` (stereo not shown) [Example 38, N-[[6-(2-tert-butoxyacetyl)-6-azaspiro[2.5]octan-2-yl]methyl]furo[2,3-c]pyridine-2-carboxamide], 18.8 nM; that for `O=C(NCC1CC12CCN(C(=O)Cc1cccnc1)CC2)c1cc2ccncc2o1` (stereo not shown) [Example 39, N-[[6-[2-(3-pyridyl)acetyl]-6-azaspiro[2.5]octan-2-yl]methyl]furo[2,3-c]pyndine-2-carboxamide], 232 nM. Same read-out and setting: the result for `O=C(NCC1CC12CCN(C(=O)CC1CCN(CC(F)(F)F)CC1)CC2)c1cc2cnccc2[nH]1` (stereo not shown) [Example 40, N-[[6-[2-[1-(2,2,2-trifluoroethyl)-4-piperidyl]acetyl]-6-azaspiro[2.5]octan-2-yl]methyl]-1H-pyrrolo[3,2-c]pyridine-2-carboxamide] reads 24.3 nM; that for `CC(C)CC(=O)N1CCC2(CC1)CC2CNC(=O)c1cc2cnccc2[nH]1` (stereo not shown) [Example 46, N-[[6-(3-methylbutanoyl)-6-azaspiro[2.5]octan-2-yl]methyl]-1H-pyrrolo[3,2-c]pyridine-2-carboxamide], 402 nM; that for `O=C(Cc1ccccc1)N1CCC2(CC1)CC2CNC(=O)N1Cc2ccncc2C1` (stereo not shown) [Example 47, N-[[6-(2-phenylacetyl)-6-azaspiro[2.5]octan-2-yl]methyl]-1,3-dihydropyrrolo[3,4-c]pyridine-2-carboxamide], 12.6 nM. For `O=C(NCC1CC12CCN(C(=O)Cc1cnccn1)CC2)c1cc2ccncc2o1` (stereo not shown) [Example 50, N-[[6-(2-pyrazin-2-ylacetyl)-6-azasptro[2.5]octan-2-yl]methyl]furo[2,3-c]pyridine-2-carboxamide], the IC50 turned out to be 2000 nM.

Regarding `O=C(NCC1CC12CCN(C(=O)CN1CCOCC1)CC2)c1cc2ccncc2o1` (stereo not shown) [Example 51, N-[[6-(2-morpholinoacetyl)-6-azaspiro[2.5]octan-2-yl]methyl]furo[2,3-c]pyridine-2-carboxamide], the IC50 is 367 nM.

As for `O=C(NCC1CC12CCN(C(=O)CC1CCCCO1)CC2)c1cc2ccncc2o1` (stereo not shown) [Example 52, N-[[6-(2-tetrahydropyran-2-ylacetyl)-6-azaspiro[2.5]octan-2-yl]methyl]furo[2,3-c]pyridine-2-carboxamide], the IC50 came out at 674 nM. The same measure, in the same setting: the result for `CC(C(=O)N1CCC2(CC1)CC2CNC(=O)c1cc2ccncc2o1)N1CCCC1` (stereo not shown) [Example 53, N-[[6-(2-pyrrolidin-1-ylpropanoyl)-6-azaspiro[2.5]octan-2-yl]methyl]furo[2,3-c]pyridine-2-carboxamide] reads 846 nM; that for `CN(C)C(=O)CCC(=O)N1CCC2(CC1)CC2CNC(=O)c1cc2ccncc2o1` (stereo not shown) [Example 55, N-[[6-[4-(dimethylamino)-4-oxo-butanoyl]-6-azaspiro[2.5]octan-2-yl]methyl]furo[2,3-c]pyridine-2-carboxamide], 2000 nM; that for `CN1CC(C(=O)N2CCC3(CC2)CC3CNC(=O)c2cc3ccncc3o2)CC1=O` (stereo not shown) [Example 56, N-[[6-(1-methyl-5-oxo-pyrrolidine-3-carbonyl)-6-azaspiro[2.5]octan-2-yl]methyl]furo[2,3-c]pyridine-2-carboxamide], 2000 nM. The same measure, in the same setting: in the case of `O=C(NCC1CC12CCN(C(=O)CN1CCCC1=O)CC2)c1cc2ccncc2o1` (stereo not shown) [Example 57, N-[[6-[2-(2-oxopyrrolidin-1-yl)acetyl]-6-azaspiro[2.5]octan-2-yl)methyl]furo[2,3-c]pyridine-2-carboxamide] it was 1600 nM; in that of `O=C(NCC1CC12CCN(C(=O)C1CCOC1)CC2)c1cc2ccncc2o1` (stereo not shown) [Example 59, N-[[6-(tetrahydrofuran-3-carbonyl)-6-azaspiro[2.5]octan-2-yl]methyl]furo[2,3-c]pyridine-2-carboxamide], 2000 nM; in that of `O=C(NCC1CC12CCN(C(=O)C1CCOCC1)CC2)c1cc2ccncc2o1` (stereo not shown) [Example 60, N-[[6-(tetrahydropyran-4-carbonyl)-6-azaspiro[2.5]octan-2-yl]methyl]furo[2,3-c]pyridine-2-carboxamide], 1530 nM. Same read-out and setting: the result for `O=C(NCC1CC12CCN(C(=O)C1CCCO1)CC2)c1cc2ccncc2o1` (stereo not shown) [Example 61, N-[[6-(tetrahydrofuran-2-carbonyl)-6-azaspiro[2.5]octan-2-yl]methyl]furo[2,3-c]pyridine-2-carboxamide] reads 2000 nM; that for `O=CNCC(=O)N1CCC2(CC1)CC2CNC(=O)c1cc2ccncc2o1` (stereo not shown) [Example 62, N-[[6-(2-formamidoacetyl)-6-azaspiro[2.5]octan-2-yl]methyl]furo[2,3-c]pyridine-2-carboxamide], 2000 nM.

The same assay, now with this note: Homo sapiens, A2780, 72 h, read-out: Cell Proliferation (IC50).
On to `O=C(NCC1CC12CCN(C(=O)C1CC1(F)F)CC2)c1cc2ccncc2o1` (stereo not shown) [Example 58, N-[[6-(2,2-difluorocyclopropanecarbonyl)-6-azaspiro[2.5]octan-2-yl]methyl]furo(2,3-c]pyridine-2-carboxamide], for which the IC50 came out at 2000 nM.
